19 molecules from PubChem BioAssay (NCI) can be followed below.

Several values for one entry are separate records, joined by “and”; a condition that tells them apart may be missing. Equal values may be shown once.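 Tested at 5 concentrations; 48 h exposure; 96-well plates; endpoints linearly interpolated, else capped at highest concentration. GI50: concentration for 50% inhibition of growth. TGI marks complete inhibition of growth.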

Common to all, as to assay: NCI tumour cell line growth inhibition, 48 h
For assay [1], the system named is HS 578T breast.
The test system of assay [2] is MDA-N.
For assay [3], the system named is NCI/ADR-RES ovarian.
Assay [4] deals with T-47D breast.

Consider `CCOC(=O)[C@]1(OC(C)=O)C[C@H](OC(C)=O)[C@@H](C(F)COP(=O)(OCc2ccccc2)OCc2ccccc2)O1` (stereo partly specified), for which the TGI in assay [1] is above 100 µM; in assay [2] it was above 100 µM; in assay [3], above 100 µM; in assay [4], 93.1 µM and > 100 µM. Also, the GI50 in assay [4] is 34.2 µM and > 100 µM.
Regarding `CC[C@@]1(O)C[C@H](OC2CC(N(C)C)C(O)C(C)O2)c2c(O)c3c(c(O)c2[C@H]1OC1CC(N(C)C)C(O)C(C)O1)C(=O)c1cccc(O)c1C3=O` (stereo partly specified), the GI50 in assay [1], in assay [2], in assay [3] and in assay [4] was below 0.01 µM throughout. The TGI was 0.388 µM and 0.0724 µM in assay [1]; 0.156 µM and 0.113 µM in assay [2]; 0.842 µM and 0.334 µM in assay [3]; 0.0379 µM in assay [4].
For `CC1(C)CCc2c(c3c(c4c(=O)c(O)c(-c5ccc(O)cc5)oc24)OC(C)(C)CC3)O1`, the GI50 in assay [1] is 69.8 µM; in assay [3] it was 55.7 µM; in assay [4] it was 72.7 µM. In addition, the TGI in assay [1], in assay [3] and in assay [4] was above 100 µM in each case.
For `O=C(Nc1ccccc1)NS(=O)(=O)c1ccc(-n2nc3c(c2-c2cccs2)Cc2ccccc2-3)cc1`, the GI50 is 16.8 µM in assay [1], 16.1 µM in assay [3] and 37.9 µM in assay [4]. For the same molecule, the figures for the TGI in assay [1], in assay [3] and in assay [4] were 52.5 µM, 43 µM and above 100 µM, respectively.
In the case of `CCCCCN(CCCCC)CC(O)c1cc(C)c2ccc3cc(C(C)C)ccc3c2c1` (stereo unspecified), the values for the GI50 in assay [1], in assay [3] and in assay [4] were 1.93 µM, 2.16 µM and 1.95 µM, respectively. Moreover, the values for the TGI in assay [1], in assay [3] and in assay [4] were 4.65 µM, 4.61 µM and 4.38 µM, respectively.
As for `CC(C)CCC[C@@H](C)[C@H]1CC[C@H]2[C@@H]3CC=C4C[C@@H](C(C(=O)O)C(=O)O)CC[C@]4(C)[C@H]3CC[C@]12C`, the figures for the GI50 in assay [1], in assay [3] and in assay [4] were 0.242 µM, 0.22 µM and 0.188 µM, respectively. For the same molecule, the TGI in assay [1] stood at 2.58 µM; in assay [3] it was 6 µM; in assay [4], 2.8 µM.
In the case of `COc1ccc(-c2nc3sccn3c2/C(N)=N/C(=N)N)cc1OC`, the GI50 in assay [1] was 35.5 µM; in assay [3], above 100 µM; in assay [4] it was 29.1 µM. In addition, the TGI in assay [1], in assay [3] and in assay [4] was above 100 µM throughout.
In the case of `CC1=C(C(=O)Nc2ccc(Cl)c(Cl)c2)C(c2cccc(Oc3ccccc3)c2)NC(=S)N1` (stereo unspecified), the GI50 was 5.03 µM in assay [1], 10.2 µM in assay [3] and 10.9 µM in assay [4]. Further, the TGI in assay [1] worked out at 13.5 µM; in assay [3], 17.4 µM; in assay [4] it was 21.4 µM.
In the case of `Nc1ccccc1SC(C[N+](=O)[O-])c1ccc2c(c1)OCO2` (stereo unspecified), the TGI in assay [1] was 36.8 µM; in assay [2], 4.63 µM; in assay [3], 73 µM; in assay [4], 25.8 µM.
For the molecule `COC1=CC(c2ccc[nH]2)=N/C1=C\c1[nH]c(C)c(C(=O)OC(C)C)c1C`, the results for the GI50 in assay [1], in assay [3] and in assay [4] were 0.0445 µM, 0.0367 µM and 0.0522 µM, respectively. Besides, the results for the TGI in assay [1], in assay [3] and in assay [4] were 0.34 µM, 1.42 µM and 1.74 µM, respectively.
As for `CC/C=C\CCC/C=C1/C(=O)C=C[C@@H]1C/C=C\CCCC(=O)OC`, the GI50 is 10.6 µM in assay [1], 3.45 µM in assay [3] and 5.16 µM in assay [4]. Also, the TGI came out at 53.3 µM in assay [1], 18 µM in assay [3] and 19.2 µM in assay [4].
In the case of `COC1=CC(=O)c2nc(-c3ccncc3)[nH]c2C1=O`, the GI50 in assay [1] is 60 µM; in assay [3] it was above 100 µM; in assay [4] it was above 100 µM. The TGI in assay [1], in assay [3] and in assay [4] was above 100 µM throughout.
`NC(=O)c1cccc2cn(-c3ccc([C@@H]4CCCNC4)cc3)nc12`: the GI50 in assay [1] is 21.5 µM; in assay [3], 19.5 µM; in assay [4] it was 12.9 µM. In addition, the TGI in assay [1] was 76.7 µM; in assay [3] it was above 74.5 µM; in assay [4] it was 35.5 µM.
With `O=C(Nc1ccc(Cl)c(Cl)c1)Nc1ccc(Cl)c(Cl)c1`, the GI50 in assay [1] was 3.29 µM and 2.08 µM; in assay [3], 3.03 µM and 2.7 µM; in assay [4], 2.01 µM and 4.22 µM. Further, the TGI in assay [1] is 19.3 µM and 6.88 µM; in assay [3], 12.9 µM and 14 µM; in assay [4], 8.12 µM and 49 µM.
For `CO[C@H](C(=O)[C@@H](O)[C@@H](C)O)[C@@H]1Cc2cc3cc(O[C@H]4C[C@@H](O[C@H]5C[C@@H](O)[C@H](O)C(C)O5)[C@H](O)C(C)O4)c(C)c(O)c3c(O)c2C(=O)[C@H]1O[C@H]1C[C@@H](O[C@H]2C[C@@H](O[C@H]3C[C@](C)(O)C(=O)C(C)O3)[C@@H](O)C(C)O2)[C@H](O)C(C)O1` (stereo partly specified), the GI50 was 0.0723 µM in assay [1], 15.3 µM in assay [3] and 0.0663 µM in assay [4]. The results for the TGI in assay [1] and in assay [3] were 8.25 µM and above 33.2 µM, respectively.
As to `COc1ccc2c(c1)/C(=C/c1c(C)nc3sc(C)nn13)C(=O)N2`, the figures for the GI50 in assay [1], in assay [3] and in assay [4] were 5.16 µM, 1.83 µM and 2.53 µM, respectively. Also, the results for the TGI in assay [1], in assay [3] and in assay [4] were above 68.3 µM, 13.6 µM and above 100 µM, respectively.
On to `CSc1nc2c(c(=O)[nH]1)N=C1c3ccccc3C(=O)C1C(c1ccccc1)N2` (stereo unspecified), for which the GI50 was 2.1 µM in assay [1], 4.54 µM in assay [3] and 4.6 µM in assay [4]. Also, the TGI in assay [1] was 7.18 µM; in assay [3], 32.1 µM; in assay [4], above 100 µM.
On to `C=C(CN1CCN(c2ccc(Cl)cc2F)CC1)c1ccc(C(=O)Nc2ccccc2N)cc1`, for which the GI50 in assay [1] was 3.38 µM; in assay [3] it was 1.97 µM. In addition, the TGI in assay [1] was above 70.6 µM; in assay [3], 5.5 µM; in assay [4] it was above 100 µM.
`Cc1ccc(NC2=C(Cl)C(=O)N(Cc3ccccc3)C2=O)cc1O`: the GI50 was 25.9 µM in assay [1], 30.8 µM in assay [3] and 44.9 µM in assay [4]. The TGI in assay [1] was 83.4 µM; in assay [3], above 100 µM; in assay [4], above 100 µM.
